From US8492410B2, “Pyridine derivatives as sphingosine 1-phosphate (S1P) receptor modulators” (Allergan, Inc., priority 2010, dated 2013)

Each compound was assayed against T1, human S1P1 receptor (Homo sapiens, UniProt P21453) (assay: GTP γ35S binding assay for S1P1 activity). Conditions: activity potency from GTP γ35S binding; 5 μg membrane protein, 30 min at 25° C., test compounds 0.08 to 5,000 nM.
T1 construct: expressed in transfected cells; membranes were used
Format: biochemical
Method: Compounds were synthesized and tested for S1P1 activity using the GTP γ^35S binding assay. These compounds may be assessed for their ability to activate or block activation of the human S1P1 receptor in cells stably expressing the S1P1 receptor.
GTP γ^35S binding was measured in the medium containing (mM) HEPES 25, pH 7.4, MgCl2 10, NaCl 100, dithitothreitol 0.5, digitonin 0.003%, 0.2 nM GTP γ^35S, and 5 μg membrane protein in a volume of 150 μl. Test compounds were included in the concentration range from 0.08 to 5,000 nM unless indicated otherwise. Membranes were incubated with 100 μM 5′-adenylylimmidodiphosphate for 30 min, and subsequently with 10 μM GDP for 10 min on ice. Drug solutions and membrane were mixed, and then reactions were initiated by adding GTP γ^35S and continued for 30 min at 25° C. Reaction mixtures were filtered over Whatman GF/B filters under vacuum, and washed three times with 3 mL of ice-cold buffer (HEPES 25, pH7.4, MgCl2 10 and NaCl 100). Filters were dried and mixed with scintillant, and counted for ^35S activity using a 8-counter. Agonist-induced GTP γ^35S binding was obtained by subtracting that in the absence of agonist. Binding data were analyzed using a non-linear regression method. In case of antagonist assay, the reaction mixture contained 10 nM S1P in the presence of test antagonist at concentrations ranging from 0.08 to 5000 nM.

T1 sequence (P21453 whole entry): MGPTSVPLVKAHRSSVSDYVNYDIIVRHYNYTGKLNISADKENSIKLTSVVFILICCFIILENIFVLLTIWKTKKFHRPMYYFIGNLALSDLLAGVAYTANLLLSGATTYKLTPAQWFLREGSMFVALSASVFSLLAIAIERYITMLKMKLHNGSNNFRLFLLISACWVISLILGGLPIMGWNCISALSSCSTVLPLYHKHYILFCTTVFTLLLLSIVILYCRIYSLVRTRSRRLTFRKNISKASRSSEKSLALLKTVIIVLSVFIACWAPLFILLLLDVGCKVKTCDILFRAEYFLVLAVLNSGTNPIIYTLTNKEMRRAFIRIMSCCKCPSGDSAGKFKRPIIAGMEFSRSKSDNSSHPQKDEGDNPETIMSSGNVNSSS

Row | SMILES | EC50 [nM]
1 | CNc1ncccc1-c1noc(C(Cc2ccc(C)c(C)c2)c2cccc(C(F)(F)F)c2)n1 (stereo not drawn) [3-(5-{2-(3,4-dimethylphenyl)-1-[3-(trifluoromethyl)phenyl]ethyl}-1,2,4-oxadiazol-3-yl)-N-methylpyridin-2-amine] | 167
2 | CNc1ncccc1-c1noc(C(Cc2ccc(C)c(C)c2)c2ccc(C(F)(F)F)cc2)n1 (stereo not drawn) [3-(5-{2-(3,4-dimethylphenyl)-1-[4-(trifluoromethyl)phenyl]ethyl}-1,2,4-oxadiazol-3-yl)-N-methylpyridin-2-amine] | 2260
3 | CNc1ncccc1-c1noc(C(Cc2cccc(C)c2)c2cccc(Cl)c2)n1 (stereo not drawn) [3-{5-[1-(3-chlorophenyl)-2-(3-methylphenyl)ethyl]-1,2,4-oxadiazol-3-yl}-N-methylpyridin-2-amine] | 125
4 | CNc1ncccc1-c1noc(C(Cc2ccc(CC(C)C)cc2)c2cccc(Cl)c2)n1 (stereo not drawn) [3-{5-[1-(3-chlorophenyl)-2-(4-isobutylphenyl)ethyl]-1,2,4-oxadiazol-3-yl}-N-methylpyridin-2-amine] | 2090
5 | CNc1ncccc1-c1noc(C(Cc2ccc(C)cc2)c2cccc(Cl)c2)n1 (stereo not drawn) [3-{5-[1-(3-chlorophenyl)-2-(4-methylphenyl)ethyl]-1,2,4-oxadiazol-3-yl}-N-methylpyridin-2-amine] | 78.3
6 | CNc1ncccc1-c1noc(C(CC2CCCCC2)c2cccc(Cl)c2)n1 (stereo not drawn) [3-{5-[1-(3-chlorophenyl)-2-cyclohexylethyl]-1,2,4-oxadiazol-3-yl}-N-methylpyridin-2-amine] | 348
7 | CNc1ncccc1-c1noc(C(CC2CCCC2)c2cccc(Cl)c2)n1 (stereo not drawn) [3-{5-[1-(3-chlorophenyl)-2-cyclopentylethyl]-1,2,4-oxadiazol-3-yl}-N-methylpyridin-2-amine] | 1860
8 | CNc1ncccc1-c1noc(C(Cc2ccccc2)c2cccc(Cl)c2)n1 (stereo not drawn) [3-{5-[1-(3-chlorophenyl)-2-phenylethyl]-1,2,4-oxadiazol-3-yl}-N-methylpyridin-2-amine] | 112
9 | CNc1ncccc1-c1noc(C(Cc2ccc(Cl)c(Cl)c2)c2ccc(Cl)cc2)n1 (stereo not drawn) [3-{5-[1-(4-chlorophenyl)-2-(3,4-dichlorophenyl)ethyl]-1,2,4-oxadiazol-3-yl}-N-methylpyridin-2-amine] | 2020
10 | CNc1ncccc1-c1noc(C(Cc2ccccc2)c2ccc(Cl)cc2)n1 (stereo not drawn) [3-{5-[1-(4-chlorophenyl)-2-phenylethyl]-1,2,4-oxadiazol-3-yl}-N-methylpyridin-2-amine] | 2400
11 | CNc1ncccc1-c1noc(C(Cc2ccc(C)c(C)c2)c2cncc(Cl)c2)n1 (stereo not drawn) [3-{5-[1-(5-chloropyridin-3-yl)-2-(3,4-dimethylphenyl)ethyl]-1,2,4-oxadiazol-3-yl}-N-methylpyridin-2-amine] | 14.5
12 | CNc1ncccc1-c1noc(C(Cc2ccc(C)c(C)c2)c2ccc(Cl)nc2)n1 (stereo not drawn) [3-{5-[1-(6-chloropyridin-3-yl)-2-(3,4-dimethylphenyl)ethyl]-1,2,4-oxadiazol-3-yl}-N-methylpyridin-2-amine] | 274
13 | CNc1ncccc1-c1noc(C(Cc2cc(C)cc(C)c2)c2ccc(Cl)nc2)n1 (stereo not drawn) [3-{5-[1-(6-chloropyridin-3-yl)-2-(3,5-dimethylphenyl)ethyl]-1,2,4-oxadiazol-3-yl}-N-methylpyridin-2-amine] | 2760
14 | CCc1cccc(C(Cc2ccc(C)c(C)c2)c2nc(-c3cccnc3NC)no2)c1 (stereo not drawn) [3-{5-[2-(3,4-dimethylphenyl)-1-(3-ethylphenyl)ethyl]-1,2,4-oxadiazol-3-yl}-N-methylpyridin-2-amine] | 61.8
15 | CNc1ncccc1-c1noc(C(Cc2ccc(C)c(C)c2)c2cccc(F)c2)n1 (stereo not drawn) [3-{5-[2-(3,4-dimethylphenyl)-1-(3-fluorophenyl)ethyl]-1,2,4-oxadiazol-3-yl}-N-methylpyridin-2-amine] | 35.7
16 | CNc1ncccc1-c1noc(C(Cc2ccc(C)c(C)c2)c2cccc(OC)c2)n1 (stereo not drawn) [3-{5-[2-(3,4-dimethylphenyl)-1-(3-methoxyphenyl)ethyl]-1,2,4-oxadiazol-3-yl}-N-methylpyridin-2-amine] | 77.6
17 | CNc1ncccc1-c1noc(C(Cc2ccc(C)c(C)c2)c2cccc(C)c2)n1 (stereo not drawn) [3-{5-[2-(3,4-dimethylphenyl)-1-(3-methylphenyl)ethyl]-1,2,4-oxadiazol-3-yl}-N-methylpyridin-2-amine] | 50.2
18 | CNc1ncccc1-c1noc(C(Cc2ccc(C)c(C)c2)c2cccc([N+](=O)[O-])c2)n1 (stereo not drawn) [3-{5-[2-(3,4-dimethylphenyl)-1-(3-nitrophenyl)ethyl]-1,2,4-oxadiazol-3-yl}-N-methylpyridin-2-amine] | 86.4
19 | CNc1ncccc1-c1noc(C(Cc2ccc(C)c(C)c2)c2ccc(OC)cc2)n1 (stereo not drawn) [3-{5-[2-(3,4-dimethylphenyl)-1-(4-methoxyphenyl)ethyl]-1,2,4-oxadiazol-3-yl}-N-methylpyridin-2-amine] | 1330
20 | CNc1ncccc1-c1noc(C(Cc2ccc(C)c(C)c2)c2ccccc2)n1 (stereo not drawn) [3-{5-[2-(3,4-dimethylphenyl)-1-phenylethyl]-1,2,4-oxadiazol-3-yl}-N-methylpyridin-2-amine] | 912
21 | CNc1ncccc1-c1noc(C(Cc2ccc(C)cc2)c2ccsc2)n1 (stereo not drawn) [Compound 1, N-methyl-3-(5-(1-(thiophen-3-yl)-2-(p-tolyl)ethyl)-1,2,4-oxadiazol-3-yl)pyridin-2-amine] | 533
22 | CNc1ncccc1-c1noc(C(Cc2ccc(C)c(C)c2)c2cccc(Cl)c2)n1 (stereo not drawn) [Compound 2, 3-{5-[2-(3,4-dimethylphenyl)-1-(3-chlorophenyl)ethyl]-1,2,4-oxadiazol-3-yl}-N-methylpyridin-2-amine] | 66.4
23 | CNc1ncccc1-c1noc(C(Cc2ccc(C)c(C)c2)c2cccc(Br)c2)n1 (stereo not drawn) [Compound 3, 3-{5-[2-(3,4-dimethylphenyl)-1-(3-bromophenyl)ethyl]-1,2,4-oxadiazol-3-yl}-N-methylpyridin-2-amine] | 50.6
24 | CNc1ncccc1-c1noc(C(Cc2ccc(C)c(C)c2)c2ccc(Cl)cc2)n1 (stereo not drawn) [Compound 10, 3-{5-[2-(3,4-dimethylphenyl)-1-(4-chlorophenyl)ethyl]-1,2,4-oxadiazol-3-yl}-N-methylpyridin-2-amine] | 470
25 | CNc1ncccc1-c1noc(C(Cc2ccc(C)c(C)c2)c2cc(F)cc(F)c2)n1 (stereo not drawn) [Compound 23, 3-(5-(1-(3,5-difluorophenyl)-2-(3,4-dimethylphenyl)ethyl)-1,2,4-oxadiazol-3-yl)-N-methylpyridin-2-amine] | 12
26 | CNc1ncccc1-c1noc(C(Cc2ccccc2)c2ccccc2)n1 (stereo not drawn) [Compound 24, 3-(5-(1,2-diphenylethyl)-1,2,4-oxadiazol-3-yl)-N-methylpyridin-2-amine] | 1240
27 | CNc1ncccc1-c1noc(C(Cc2ccc(C)c(C)c2)c2cc(C)cc(C)c2)n1 (stereo not drawn) [Compound 25, 3-(5-(2-(3,4-dimethylphenyl)-1-(3,5-dimethylphenyl)ethyl)-1,2,4-oxadiazol-3-yl)-N-methylpyridin-2-amine] | 161
28 | CNc1ncccc1-c1noc(C(Cc2ccc(C)cc2)c2cccs2)n1 (stereo not drawn) [Compound 26, N-methyl-3-(5-(1-(thiophen-2-yl)-2-(p-tolyl)ethyl)-1,2,4-oxadiazol-3-yl)pyridin-2-amine] | 928
29 | CNc1ncccc1-c1noc(C(Cc2ccc(C)c(C)c2)c2cccs2)n1 (stereo not drawn) [Compound 27, 3-(5-(2-(3,4-dimethylphenyl)-1-(thiophen-2-yl)ethyl)-1,2,4-oxadiazol-3-yl)-N-methylpyridin-2-amine] | 524
30 | CNc1ncccc1-c1noc(C(Cc2ccc(C)c(C)c2)c2ccsc2)n1 (stereo not drawn) [Compound 29, 3-(5-(2-(3,4-dimethylphenyl)-1-(thiophen-3-yl)ethyl)-1,2,4-oxadiazol-3-yl)-N-methylpyridin-2-amine] | 296
